According to ChEMBL document CHEMBL1136575, “Pyridazinones as selective cyclooxygenase-2 inhibitors” (Bioorg Med Chem Lett, 2003):
pIC50: −log10 of the molar value.

Assays:
[1] = biological target: T1, Prostaglandin G/H synthase 2 (Homo sapiens, UniProt P35354); test: In vitro inhibitory activity against prostaglandin G/H synthase 2 stably transfected in Human whole blood (HWB) cell; format: tissue-based
T1 sequence (P35354 whole entry): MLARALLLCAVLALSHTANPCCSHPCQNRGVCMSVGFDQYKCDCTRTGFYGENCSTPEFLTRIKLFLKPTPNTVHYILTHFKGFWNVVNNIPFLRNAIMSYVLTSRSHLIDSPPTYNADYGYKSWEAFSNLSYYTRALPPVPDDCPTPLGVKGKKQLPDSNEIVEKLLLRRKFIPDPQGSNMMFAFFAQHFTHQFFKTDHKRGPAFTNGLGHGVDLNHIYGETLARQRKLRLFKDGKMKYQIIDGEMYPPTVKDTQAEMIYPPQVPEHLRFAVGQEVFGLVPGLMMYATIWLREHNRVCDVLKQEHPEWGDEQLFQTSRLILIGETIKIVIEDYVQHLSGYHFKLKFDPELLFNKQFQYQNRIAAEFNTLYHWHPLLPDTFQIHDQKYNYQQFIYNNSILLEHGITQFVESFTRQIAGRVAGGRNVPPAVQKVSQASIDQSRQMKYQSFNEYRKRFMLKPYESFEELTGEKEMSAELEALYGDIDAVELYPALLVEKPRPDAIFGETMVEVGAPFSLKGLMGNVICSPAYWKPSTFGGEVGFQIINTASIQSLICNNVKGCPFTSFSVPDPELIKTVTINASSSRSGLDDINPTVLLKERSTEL

[2] = biological target: T1, Prostaglandin G/H synthase 2; test: In vitro inhibitory activity against prostaglandin G/H synthase 2 stably transfected in Chinese hamster ovary (CHO) cells; format: cell-based
[3] = biological target: Prostaglandin G/H synthase 1 (Homo sapiens, UniProt P23219); test: In vitro inhibitory activity against sensitive U-937 microsomal prostaglandin G/H synthase 1
Prostaglandin G/H synthase 1, sequence (P23219 whole entry): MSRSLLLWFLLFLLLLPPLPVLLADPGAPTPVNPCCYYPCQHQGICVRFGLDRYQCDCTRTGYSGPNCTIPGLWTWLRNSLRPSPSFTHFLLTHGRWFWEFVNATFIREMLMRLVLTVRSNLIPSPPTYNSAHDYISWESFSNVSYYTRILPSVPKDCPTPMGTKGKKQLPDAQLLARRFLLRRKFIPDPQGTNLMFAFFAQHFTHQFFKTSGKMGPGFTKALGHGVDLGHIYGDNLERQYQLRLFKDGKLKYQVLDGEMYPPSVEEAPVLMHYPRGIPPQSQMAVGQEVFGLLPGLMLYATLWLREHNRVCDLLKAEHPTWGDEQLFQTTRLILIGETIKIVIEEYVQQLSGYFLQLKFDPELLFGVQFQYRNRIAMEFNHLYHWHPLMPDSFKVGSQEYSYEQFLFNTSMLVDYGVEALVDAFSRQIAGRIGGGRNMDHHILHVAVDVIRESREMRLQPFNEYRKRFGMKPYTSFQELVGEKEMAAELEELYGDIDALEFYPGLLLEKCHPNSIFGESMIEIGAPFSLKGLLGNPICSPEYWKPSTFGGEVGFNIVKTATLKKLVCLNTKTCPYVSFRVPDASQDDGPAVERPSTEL

[4] = Cmax value was determined after peroral administration of 20 mg/kg in rat; format: ADME, organism-based; parameters: dose 20 mg/kg, route oral; conditions: in vivo, po
Rattus norvegicus [5] = test: Effective dose of the Compound was determined in vivo by using rat paw edema assay; format: functional
Rattus norvegicus [6] = test: Effective dose of the Compound was determined in vivo by using rat pyresis assay; format: functional
Rattus norvegicus [7] = test: Percent inhibition was determined in vivo by using rat paw edema assay at 10 mg/kg; format: functional

Row | pIC50 [1] | pIC50 [2] | pIC50 [3] | Cmax [4] | Structure (SMILES) | ED50 (Rattus norvegicus [5]) | ED50 (Rattus norvegicus [6]) | inhibition in vivo at 10 mg/kg (Rattus norvegicus [7])
1 | 6.15 | 6.70 | 5.52 | – | CC1(Cn2ncc(-c3ccc(S(C)(=O)=O)cc3)c(-c3ccc(F)cc3)c2=O)CC1 | – | – | –
2 | – | – | < 5.00 | 8.5 µM | CS(=O)(=O)c1ccc(-c2cnn(CC3CC3)c(=O)c2-c2ccc(F)cc2)cc1 | 10 mg/kg | – | –
3 | – | – | 6.00 | – | CS(=O)(=O)c1ccc(-c2cnn(Cc3cccs3)c(=O)c2-c2ccc(F)cc2)cc1 | – | – | –
4 | – | – | 5.00 | – | CS(=O)(=O)c1ccc(-c2cnn(Cc3ccccc3)c(=O)c2Oc2ccc(Cl)cn2)cc1 | – | – | –
5 | 6.15 | 7.52 | 5.52 | – | CC1(C)CC1Cn1ncc(-c2ccc(S(C)(=O)=O)cc2)c(-c2ccc(F)cc2)c1=O (racemic) | – | – | –
6 | < 4.48 | < 5.30 | < 5.00 | – | CC(C)(C)n1ncc(-c2ccc(S(C)(=O)=O)cc2)c(-c2ccccc2)c1=O | – | – | –
7 | – | – | 5.00 | 1 µM | CS(=O)(=O)c1ccc(-c2cnn(Cc3ccccc3)c(=O)c2-c2ccccc2)cc1 | – | – | –
8 | – | – | 6.00 | – | CS(=O)(=O)c1ccc(-c2cnn(CC3CCCCC3)c(=O)c2-c2ccc(F)cc2)cc1 | – | – | –
9 | < 4.48 | < 5.30 | < 5.00 | – | CS(=O)(=O)c1ccc(-c2cnnc(O)c2-c2ccccc2)cc1 | – | – | –
10 | 6.15 | 7.30 | 5.52 | – | C[C@H]1C(Cn2ncc(-c3ccc(S(C)(=O)=O)cc3)c(-c3ccc(F)cc3)c2=O)[C@@H]1C (mixture of isomers) | – | – | –
11 | – | – | < 5.00 | – | CS(=O)(=O)c1ccc(-c2cnn(-c3ccccc3)c(=O)c2-c2ccccc2)cc1 | – | – | –
12 | – | – | 5.52 | – | CC(C)=CCn1ncc(-c2ccc(S(C)(=O)=O)cc2)c(-c2ccc(F)cc2)c1=O | – | – | –
13 | – | – | 6.00 | – | CS(=O)(=O)c1ccc(-c2cnn(Cc3ccccc3)c(=O)c2Oc2ccc(F)cc2)cc1 | > 10 mg/kg | – | –
14 | – | – | < 5.00 | 4.2 µM | Cc1ccc(-c2c(-c3ccc(S(C)(=O)=O)cc3)cnn(Cc3ccccc3)c2=O)cn1 | > 10 mg/kg | – | –
15 | 6.52 | 7.22 | 5.52 | 16 µM | C[C@H]1C[C@@H]1Cn1ncc(-c2ccc(S(C)(=O)=O)cc2)c(-c2ccc(F)cc2)c1=O | 0.7 mg/kg | 1.1 mg/kg | –
16 | – | – | < 5.00 | 2.8 µM | CC(C)Oc1c(-c2ccc(S(C)(=O)=O)cc2)cnn(Cc2ccccc2)c1=O | < 0.3 mg/kg | < 0.3 mg/kg | –
17 | 5.62 | 7.30 | 5.00 | – | C[C@H]1C[C@H]1Cn1ncc(-c2ccc(S(C)(=O)=O)cc2)c(-c2ccc(F)cc2)c1=O (racemic) | – | – | –
18 | 6.15 | 6.70 | 5.00 | 13 µM | CC(C1CC1)n1ncc(-c2ccc(S(C)(=O)=O)cc2)c(-c2ccc(F)cc2)c1=O (racemic) | 1.8 mg/kg | > 10 mg/kg | –
19 | 5.77 | 7.22 | 5.00 | 4.8 µM | C[C@@H]1C[C@H]1Cn1ncc(-c2ccc(S(C)(=O)=O)cc2)c(-c2ccc(F)cc2)c1=O | – | – | 40%
20 | – | – | 5.00 | – | CS(=O)(=O)c1ccc(-c2cnn(C3CC3)c(=O)c2-c2ccc(F)cc2)cc1 | – | – | –
21 | 5.15 | 5.89 | 5.00 | – | CS(=O)(=O)c1ccc(-c2cnn(Cc3cccnc3)c(=O)c2-c2ccccc2)cc1 | – | – | –

Row | Structure (SMILES) | pIC50 [1] | pIC50 [2] | pIC50 [3] | Cmax [4] | ED50 (Rattus norvegicus [5]) | ED50 (Rattus norvegicus [6]) | inhibition in vivo at 10 mg/kg (Rattus norvegicus [7])
22 | CS(=O)(=O)c1ccc(-c2cnn(Cc3ccccc3)c(=O)c2OCC2CC2)cc1 | 6.44 | 8.52 | 5.00 | 0.8 µM | > 10 mg/kg | – | –
23 | CS(=O)(=O)c1ccc(-c2cnn(Cc3ccccc3)c(=O)c2Sc2ccccc2)cc1 | 5.23 | 6.43 | 5.00 | – | – | – | –
24 | CS(=O)(=O)c1ccc(-c2cnn(CCC3CC3)c(=O)c2-c2ccc(F)cc2)cc1 | 5.54 | 6.70 | < 5.00 | – | – | – | –
25 | Cn1ncc(-c2ccc(S(C)(=O)=O)cc2)c(-c2ccccc2)c1=O | – | 6.52 | – | – | – | – | –
26 | CS(=O)(=O)c1ccc(-c2cnn(Cc3nccs3)c(=O)c2-c2ccc(F)cc2)cc1 | 5.23 | 6.22 | 5.00 | – | – | – | –
27 | Cc1ccc(-c2c(-c3ccc(S(C)(=O)=O)cc3)cnn(Cc3ccccc3)c2=O)cc1 | – | 7.70 | < 5.00 | 2.7 µM | 2.2 mg/kg | > 10 mg/kg | –
